Reference: article doi:10.1101/2020.07.10.197525v1 (biorxiv, 2020)

Tests used:
GABAA α3β3γ2 = GABAA α3β3γ2 (Rattus norvegicus, UniProt P18508+P20236+P63079); assay: voltage clamp of Xenopus oocytes, potentiation of GABA-induced currents; type: cell-based
GABAA α3β2γ2 = GABAA α3β2γ2 (Rattus norvegicus, UniProt P18508+P20236+P63138); assay: as above; type: cell-based
Sequence of GABAA α3β2γ2 (P20236 29-493): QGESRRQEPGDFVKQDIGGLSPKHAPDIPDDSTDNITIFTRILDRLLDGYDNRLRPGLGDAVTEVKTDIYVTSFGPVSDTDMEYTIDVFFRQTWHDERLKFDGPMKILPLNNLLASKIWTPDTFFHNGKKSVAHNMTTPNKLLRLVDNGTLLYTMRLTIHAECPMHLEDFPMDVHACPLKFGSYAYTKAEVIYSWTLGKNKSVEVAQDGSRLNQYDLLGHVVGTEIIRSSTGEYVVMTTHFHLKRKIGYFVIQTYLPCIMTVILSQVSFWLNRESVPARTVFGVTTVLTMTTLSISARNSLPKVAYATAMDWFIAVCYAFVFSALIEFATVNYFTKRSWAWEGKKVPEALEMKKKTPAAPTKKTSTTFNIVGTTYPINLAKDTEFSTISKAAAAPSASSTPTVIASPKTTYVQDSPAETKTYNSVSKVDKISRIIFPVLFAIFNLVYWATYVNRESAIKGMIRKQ
Sequence of GABAA α3β2γ2 (P63138 26-474): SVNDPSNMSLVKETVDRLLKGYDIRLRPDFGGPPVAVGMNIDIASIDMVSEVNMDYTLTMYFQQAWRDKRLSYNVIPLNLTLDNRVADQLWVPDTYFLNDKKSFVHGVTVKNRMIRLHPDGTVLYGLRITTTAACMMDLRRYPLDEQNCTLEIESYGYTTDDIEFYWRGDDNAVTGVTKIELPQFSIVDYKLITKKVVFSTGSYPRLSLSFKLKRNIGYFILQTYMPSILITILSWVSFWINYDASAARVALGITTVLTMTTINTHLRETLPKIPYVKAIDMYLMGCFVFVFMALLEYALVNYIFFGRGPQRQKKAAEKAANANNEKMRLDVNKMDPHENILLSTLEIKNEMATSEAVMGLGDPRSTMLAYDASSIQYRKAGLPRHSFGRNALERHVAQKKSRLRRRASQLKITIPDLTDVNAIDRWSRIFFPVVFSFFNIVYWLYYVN
Sequence of GABAA α3β2γ2 (P18508 39-466): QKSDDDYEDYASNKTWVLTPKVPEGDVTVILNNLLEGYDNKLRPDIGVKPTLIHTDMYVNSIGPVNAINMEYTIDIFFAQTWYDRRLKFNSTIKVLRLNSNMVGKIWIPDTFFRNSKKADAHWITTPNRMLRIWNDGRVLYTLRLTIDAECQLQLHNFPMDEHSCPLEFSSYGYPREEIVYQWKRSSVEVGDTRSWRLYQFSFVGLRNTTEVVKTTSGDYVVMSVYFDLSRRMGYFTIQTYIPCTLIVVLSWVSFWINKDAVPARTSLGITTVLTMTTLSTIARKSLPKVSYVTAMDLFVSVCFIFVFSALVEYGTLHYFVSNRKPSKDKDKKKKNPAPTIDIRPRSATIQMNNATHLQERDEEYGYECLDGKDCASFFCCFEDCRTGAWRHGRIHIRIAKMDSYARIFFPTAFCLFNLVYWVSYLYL

Sequence of GABAA α3β3γ2 (P20236 29-493): as the sequence (P20236 29-493) above
Sequence of GABAA α3β3γ2 (P63079 26-473): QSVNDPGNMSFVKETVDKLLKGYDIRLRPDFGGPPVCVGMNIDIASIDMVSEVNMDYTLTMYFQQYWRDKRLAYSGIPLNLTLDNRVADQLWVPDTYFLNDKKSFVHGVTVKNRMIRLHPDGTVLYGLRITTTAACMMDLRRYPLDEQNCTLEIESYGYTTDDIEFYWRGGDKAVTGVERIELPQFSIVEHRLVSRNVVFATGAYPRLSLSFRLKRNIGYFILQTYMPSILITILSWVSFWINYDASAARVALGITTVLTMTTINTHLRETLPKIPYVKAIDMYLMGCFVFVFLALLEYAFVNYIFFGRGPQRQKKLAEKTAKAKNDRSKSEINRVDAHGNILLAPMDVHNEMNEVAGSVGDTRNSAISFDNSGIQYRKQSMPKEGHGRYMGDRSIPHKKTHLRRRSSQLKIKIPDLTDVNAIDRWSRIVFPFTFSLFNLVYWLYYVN
Sequence of GABAA α3β3γ2 (P18508 39-466): as the sequence (P18508 39-466) above

CCOC(=O)c1cc(NC(=O)N(c2ccccc2)c2ccccc2)c2c(Cl)cc(Cl)cc2n1 [DCUK-OEt, 5,7-dichloro-4-([diphenylcarbamoyl]amino) quinoline-2-ethyl carboxylate]
EC50 (GABAA α3β3γ2): 130 nM | EC50 (GABAA α3β2γ2): 380 nM
